Test system: P. falciparum 3D7
Assay: P. falciparum drug susceptibility assay (3D7)
Type: cell-based, Plasmodium falciparum
Details: Plasmodium falciparum; 3D7 strain; racemate unless indicated; read-out: 3D7_EC50
Experimental: Parasites were grown as previously described in Mallari, J. P., Guiguemde, W. A., and Guy, R. K., Antimalarial activity of thiosemicarbazones and purine derived nitriles, Bioorg Med Chem Lett 19 (13), 3546 (2009). […] DMSO inhibitor stock solutions were pin-transferred (V&P Scientific) into the assay plate and background fluorescence was measured in both relevant channels (485 nm /535 nm, 612 nm /665 nm) in an Envision plate reader (PerkinElmer). Then 20 μl of a synchronized culture suspension (1% rings, 10% hematocrit) were added per well, thus making a final hematocrit and parasitemia of 5% and 1% respectively. Assay plates were incubated for 72 h and parasitemia was determined based on a modified protocol. (Smilkstein, M. et al., Simple and inexpensive fluorescence-based technique for high-throughput antimalarial drug screening. Antimicrob Agents Chemother 48 (5), 1803 (2004)). Briefly, 5 μl of mixed DNA dye solution in RPMI (5X SYBR Green I, 1 μM YOYO-3, 1% v/v Triton X-100, 1 mg/ml saponin) were added per well, assay plates were shaken for 30 s at 2000 rpm, incubated in the dark for 4 h, then read as previously described.

Row | SMILES | EC50
1 | Cn1cc([C@@H]2[C@@H](C(=O)Nc3ccc(F)c(C#N)c3)c3ccccc3C(=O)N2CC(F)(F)F)cn1 (racemic) [Example 4, N-(3-cyano-4-fluorophenyl)-3-(1-methyl-1H-pyrazol-4-yl)-1-oxo-2-(2,2,2-trifluoroethyl)-1,2,3,4-tetrahydroisoquinoline-4-carboxamide] | 24 nM
2 | CC(C)CN1C(=O)c2ccccc2[C@H](C(=O)Nc2cccc(C#N)c2)[C@H]1c1cnn(C)c1 (racemic) [Example 15, N-(3-cyanophenyl)-2-isobutyl-3-(1-methyl-1H-pyrazol-4-yl)-1-oxo-1,2,3,4-tetrahydroisoquinoline-4-carboxamide] | 36 nM
3 | O=C(Nc1cc(F)cc(OC(F)(F)F)c1)[C@H]1c2ccccc2C(=O)N(CC(F)(F)F)[C@@H]1c1cccnc1 (racemic) [Example 42, N-(3-fluoro-5-(trifluoromethoxy)phenyl)-1-oxo-3-(pyridin-3-yl)-2-(2,2,2-trifluoroethyl)-1,2,3,4-tetrahydroisoquinoline-4-carboxamide] | 144 nM
4 | N#Cc1cc(F)cc(NC(=O)[C@H]2c3ccccc3C(=O)N(CC(F)(F)F)[C@@H]2c2cn[nH]c2)c1 (racemic) [Example 20, N-(3-cyano-5-fluorophenyl)-1-oxo-3-(1H-pyrazol-4-yl)-2-(2,2,2-trifluoroethyl)-1,2,3,4-tetrahydroisoquinoline-4-carboxamide] | 9 nM
5 | N#Cc1cc(NC(=O)[C@H]2c3ccccc3C(=O)N(CC(F)(F)F)[C@@H]2c2cn[nH]c2)ccc1F (racemic) [Example 2, N-(3-cyano-4-fluorophenyl)-1-oxo-3-(1H-pyrazol-4-yl)-2-(2,2,2-trifluoroethyl)-1,2,3,4-tetrahydroisoquinoline-4-carboxamide] | 41 nM
6 | N#Cc1cc(Cl)cc(NC(=O)[C@H]2c3ccccc3C(=O)N(CC(F)(F)F)[C@@H]2c2cccnc2)c1 (racemic) [Example 12, N-(3-chloro-5-cyanophenyl)-1-oxo-3-(pyridin-3-yl)-2-(2,2,2-trifluoroethyl)-1,2,3,4-tetrahydroisoquinoline-4-carboxamide] | 36 nM
7 | CC(C)CN1C(=O)c2ccccc2[C@H](C(=O)Nc2cccc(C#N)c2)[C@H]1c1cccnc1 (racemic) [Example 17, N-(3-cyanophenyl)-2-isobutyl-1-oxo-3-(pyridin-3-yl)-1,2,3,4-tetrahydroisoquinoline-4-carboxamide] | 58 nM

— patent US9416124B2, “Substituted 2-alkyl-1-OXO-N-phenyl-3-heteroaryl-1,2,3,4-tetrahydroisoquinoline-4-carboxamides for antimalarial therapies” (ST. JUDE CHILDREN'S RESEARCH HOSPITAL, priority 2011, dated 2016)
